The source of these data is ChEMBL document CHEMBL1201862, “PubChem BioAssay data set” (2004).

Test systems include RPMI-8226; EKVX; DU-145; COLO 205; SW-620; MOLT-4; SNB-75; NCI-H226; SNB-19; SK-MEL-28; SR; MDA-MB-231; NCI-H460; M14; A498; SK-MEL-2; T47D; NCI-H23; NCI-H522.
Experiment in all cases: growth of human tumour cells (NCI), 48 h

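All cell lines were grown in 96-well plates and treated with compound for 48 hours. Here, GI50 denotes the concentration required for 50% inhibition of growth.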 Active and inactive are the calls of the source. Rule as the data show it: active = GI50 up to about 1.1 µM and inactive = higher. Bounds are passed on as bounds.

As for `COc1ccc(/C=C2\CCS(=O)(=O)c3ccccc3C2=O)cc1OC`, the GI50 was 35.2 µM (inactive) in the test with RPMI-8226; 38.2 µM (inactive) with EKVX; 23.6 µM (inactive) in the test on DU-145; 48.8 µM (inactive) with COLO 205; 38 µM (inactive) in the test on SW-620; 46.2 µM (inactive) in the test with MOLT-4. In addition, the GI50 is 24.9 µM (inactive) in the test with SNB-75; 29.1 µM (inactive) in the test on NCI-H226; 42.8 µM (inactive) in the test on SNB-19; 53.1 µM (inactive) in the test with SK-MEL-28; 43.5 µM (inactive) in the test with SR; 30.8 µM (inactive) with MDA-MB-231. The GI50 in the test on NCI-H460 is 18.3 µM (inactive); with M14, 38.9 µM (inactive); in the test with A498 it was 33.4 µM (inactive); with SK-MEL-2, 35.4 µM (inactive); with T47D, 32.3 µM (inactive); in the test with NCI-H23 it was 28.8 µM (inactive).
Consider `CC1=COC(C)(C=C(C#N)C#N)CC1` (stereo unspecified), for which the GI50 was 38.5 µM (inactive) with RPMI-8226; > 100 µM (inactive) in the test on EKVX; > 100 µM (inactive) in the test with DU-145; > 100 µM (inactive) with COLO 205; 50.7 µM (inactive) in the test with SW-620; 40.9 µM (inactive) in the test with MOLT-4. Besides, the GI50 was 65.8 µM (inactive) in the test on SNB-75; > 100 µM (inactive) with NCI-H226; > 100 µM (inactive) in the test on SNB-19; 71 µM (inactive) in the test on SK-MEL-28; 31 µM (inactive) in the test with SR; 67.5 µM (inactive) in the test on MDA-MB-231. The GI50 with NCI-H460 was > 100 µM (inactive); in the test with M14, 78.5 µM (inactive); with A498, 27 µM (inactive); in the test with T47D, 98.4 µM (inactive); in the test with NCI-H23, 61 µM (inactive).
For the compound `Cc1ccc(C2(c3ccc(C)cc3)SC(=C(C#N)C#N)c3ccccc32)cc1`, the GI50 in the test on EKVX was > 100 µM (inactive); in the test on DU-145 it was > 100 µM (inactive); in the test on SW-620 it was 6.75 µM (inactive); in the test with MOLT-4, 21.1 µM (inactive); in the test on NCI-H226 it was > 100 µM (inactive); with SNB-19, > 100 µM (inactive). Further, the GI50 in the test on SK-MEL-28 was > 100 µM (inactive); with SR, 27.6 µM (inactive); in the test on MDA-MB-231, > 100 µM (inactive); with NCI-H460 it was > 100 µM (inactive); in the test on M14, > 100 µM (inactive); with A498, > 100 µM (inactive). In addition, the figures for the GI50 in the test with SK-MEL-2, in the test with T47D and in the test with NCI-H23 were 2.9 µM (inactive), > 100 µM (inactive) and > 100 µM (inactive), respectively.
Regarding `COc1cc(C(=O)n2c3ccc(Br)cc3c3nc4ccccc4nc32)cc(OC)c1OC`, the GI50 with RPMI-8226 is > 100 µM (inactive); with EKVX it was > 100 µM (inactive); in the test on DU-145, > 100 µM (inactive); in the test on COLO 205, > 100 µM (inactive); with SW-620, > 100 µM (inactive); in the test with MOLT-4 it was 50.8 µM (inactive). In addition, the GI50 in the test on SNB-75 was 26.2 µM (inactive); in the test with NCI-H522 it was 36.6 µM (inactive); in the test with NCI-H226 it was > 100 µM (inactive); with SNB-19 it was 51.6 µM (inactive); in the test with SK-MEL-28 it was > 100 µM (inactive); with SR, > 100 µM (inactive). In addition, the GI50 in the test on MDA-MB-231 is 72.8 µM (inactive); with NCI-H460, > 100 µM (inactive); in the test on M14, > 100 µM (inactive); in the test on SK-MEL-2, 62.8 µM (inactive); in the test with T47D, > 100 µM (inactive); in the test with NCI-H23, > 100 µM (inactive).
For `CC1CCCc2c(C#N)c(N)nc(-c3ccc(Cl)cc3)c21` (stereo unspecified), the GI50 in the test with RPMI-8226 is 11.1 µM (inactive); in the test with EKVX, 14.7 µM (inactive); in the test on DU-145 it was 33.7 µM (inactive); in the test on COLO 205, 18.8 µM (inactive); in the test with SW-620 it was 53.6 µM (inactive); in the test on MOLT-4, 7.69 µM (inactive). Moreover, the GI50 in the test with SNB-75 is 22.4 µM (inactive); with NCI-H226 it was 14.5 µM (inactive); with SNB-19, 39.4 µM (inactive); in the test with SK-MEL-28 it was 27.6 µM (inactive); in the test on SR it was 42.2 µM (inactive); in the test on MDA-MB-231 it was 22.1 µM (inactive). Further, the GI50 in the test on NCI-H460 is 22.8 µM (inactive); in the test with M14 it was 19.2 µM (inactive); with A498 it was 68.4 µM (inactive); in the test with SK-MEL-2 it was 15.6 µM (inactive); in the test with T47D it was 5.96 µM (inactive); in the test with NCI-H23, 16.8 µM (inactive).
Consider `N#C/C(C(=O)CCl)=C1\Nc2ccccc2O1`, for which the GI50 in the test on RPMI-8226 was 2.92 µM (inactive); in the test on DU-145 it was 10.2 µM (inactive); with COLO 205, 1.94 µM (inactive); in the test with SW-620, 4.33 µM (inactive); in the test with MOLT-4, 3.35 µM (inactive); in the test on SNB-75, 5.48 µM (inactive). Moreover, the GI50 with NCI-H226 was 2.3 µM (inactive); in the test on SNB-19 it was 7.98 µM (inactive); in the test with SK-MEL-28, 1.63 µM (inactive); in the test on SR, 3.84 µM (inactive); in the test with MDA-MB-231 it was 2.89 µM (inactive); in the test with NCI-H460 it was 3.19 µM (inactive). Also, the GI50 in the test with M14 is 3.9 µM (inactive); in the test with A498 it was 1.95 µM (inactive); in the test on SK-MEL-2, 3.3 µM (inactive); with T47D it was 15.6 µM (inactive); in the test with NCI-H23, 3.75 µM (inactive).
For `COc1cc(-c2c3c(cc4c2OCO4)[C@@H](Nc2ccc(-c4ccc(-c5ccc(N[C@@H]6c7cc8c(cc7C(c7cc(OC)c(O)c(OC)c7)[C@H]7C(=O)OC[C@H]67)OCO8)cc5)cc4)cc2)[C@H]2COC(=O)[C@@H]2C3)cc(OC)c1O` (stereo partly specified), the GI50 was 2.52 µM (inactive) in the test with RPMI-8226; 4.51 µM (inactive) with EKVX; 1.93 µM (inactive) in the test with DU-145; 1.7 µM (inactive) with COLO 205; 2.7 µM (inactive) with SW-620; 3.1 µM (inactive) in the test with MOLT-4. Moreover, the GI50 in the test on SNB-75 is < 0.01 µM (active); with NCI-H226 it was 2.09 µM (inactive); in the test on SNB-19, 2.96 µM (inactive); in the test with SK-MEL-28, 1.85 µM (inactive); with SR it was 2.2 µM (inactive); with MDA-MB-231 it was 2.19 µM (inactive). Also, the GI50 with NCI-H460 was 3.05 µM (inactive); in the test on M14, 1.95 µM (inactive); with A498 it was 4.62 µM (inactive); in the test on T47D, 4.93 µM (inactive); in the test with NCI-H23 it was 5.13 µM (inactive).
Take `OCCN(C1=NCCN1)/[N+](=C\c1ccccn1)[CH-]c1ccccn1`: the GI50 in the test on RPMI-8226 was 12.1 µM (inactive); in the test on EKVX it was > 100 µM (inactive); in the test with DU-145, > 100 µM (inactive); in the test with COLO 205, > 100 µM (inactive); in the test on SW-620, > 100 µM (inactive); in the test with MOLT-4, > 100 µM (inactive). Moreover, the GI50 in the test on SNB-75 was > 100 µM (inactive); with NCI-H522, > 100 µM (inactive); in the test with NCI-H226, > 100 µM (inactive); in the test with SK-MEL-28 it was > 100 µM (inactive); with SR, 8.87 µM (inactive); in the test with MDA-MB-231, > 100 µM (inactive). The GI50 in the test on NCI-H460, with M14, in the test on A498, with T47D and in the test with NCI-H23 was > 100 µM (inactive) throughout.
Take `COc1cc([C@H]2CC(=O)C[C@@H](c3cc(OC)c(OC)c(OC)c3)C23C(=O)c2ccccc2C3=O)cc(OC)c1OC`: the GI50 was > 100 µM (inactive) in the test on RPMI-8226; 91.8 µM (inactive) with EKVX; > 100 µM (inactive) in the test with DU-145; > 100 µM (inactive) with COLO 205; > 100 µM (inactive) in the test with SW-620; > 100 µM (inactive) in the test on MOLT-4. The GI50 with SNB-75 is 45.1 µM (inactive); in the test on NCI-H522, > 100 µM (inactive); with NCI-H226 it was > 100 µM (inactive); with SNB-19, > 100 µM (inactive); with SK-MEL-28, > 100 µM (inactive); in the test on SR it was > 100 µM (inactive). Further, the GI50 with MDA-MB-231, in the test on NCI-H460, in the test on M14, with SK-MEL-2, in the test with T47D and with NCI-H23 was > 100 µM (inactive) throughout.
As for `CCOC(=O)/C(C#N)=N\Nc1ccc(-n2c(C)nc3ccccc3c2=O)cc1`, the GI50 with RPMI-8226 was 30.9 µM (inactive); with EKVX, 53.2 µM (inactive); in the test with DU-145, 77.6 µM (inactive); with COLO 205 it was 78.3 µM (inactive); with SW-620 it was 75.9 µM (inactive); in the test on MOLT-4, 23.7 µM (inactive). Besides, the GI50 with SNB-75 is 63.5 µM (inactive); in the test on NCI-H226 it was 24.5 µM (inactive); in the test on SNB-19, > 100 µM (inactive); with SK-MEL-28 it was 33.2 µM (inactive); with SR it was 39.4 µM (inactive); in the test on MDA-MB-231, > 100 µM (inactive). The GI50 is 67.5 µM (inactive) with NCI-H460; 69.8 µM (inactive) in the test on M14; > 100 µM (inactive) in the test with A498; > 100 µM (inactive) in the test on SK-MEL-2; 34.8 µM (inactive) in the test on T47D; > 100 µM (inactive) in the test on NCI-H23.
Turning to `Cc1c2ccccc2c(C)n2c1nc1cc(Cl)c(Cl)cc12`, the GI50 in the test on RPMI-8226 is 8.83 µM (inactive); with EKVX it was > 10 µM (inactive); in the test on DU-145 it was > 10 µM (inactive); in the test on COLO 205, > 10 µM (inactive); in the test with SW-620 it was > 10 µM (inactive); in the test on MOLT-4, 2.93 µM (inactive). For the same compound, the GI50 in the test on SNB-75 is 3.8 µM (inactive); in the test on NCI-H522, 5.81 µM (inactive); in the test on NCI-H226, 0.0296 µM (active); in the test on SNB-19, > 10 µM (inactive); in the test with SK-MEL-28, > 10 µM (inactive); in the test on SR, > 10 µM (inactive). The GI50 was > 10 µM (inactive) in the test with MDA-MB-231; 4.04 µM (inactive) with NCI-H460; > 10 µM (inactive) with M14; > 10 µM (inactive) in the test on SK-MEL-2; > 10 µM (inactive) with T47D; > 10 µM (inactive) with NCI-H23.
